From US20160257697A1, “THIOPHENE-SUBSTITUTED TETRACYCLIC COMPOUNDS AND METHODS OFUSE THEREOF FOR THE TREATMENT OF VIRAL DISEASES” (priority 2013, published 2016)
pIC50: −log10 of the molar value. Read-outs that look alike come from different tables or passages of the source.

Experiments:
Assay in all cases: microbe, parasite or virus in culture
Format in all cases: cell-based, Hepatitis C virus (HCV)
HCV replicon 1AY93H = test system: HCV replicon 1AY93H
How it was run: (§1)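 Read-out is replicon RNA per cell by real-time RT-PCR, normalised to cyclophilin mRNA amplified in the same well. Cells were exposed to compound for 3 days at 2000 cells/well in medium with 5% fetal bovine serum and 0.5% DMSO.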

HCV replicon 1A = details: Replicon Assay A
How it was run: as §1

HCV replicon 2B = details: Replicon Assay A
How it was run: as §1

HCV replicon 1B = details: Replicon Assay B
Experimental: In an alternate assay (“Replicon Assay B”), 1000 cells were seeded per well in a 384-well collagen coated black plate from Greiner bio-one (Cat #781946) in 5% FBS. Inhibitors of this invention were added at 24 h post-seeding, and the plates were incubated for 3 days. Cells were subsequently lysed with Qiagen lysis buffer (Cat #1062731) to extract the RNA. HCV replicon RNA level was measured by real-time PCR using the RNA-to-CT kit from Applied Biosystem (Cat #4392656) and genotype-specific primers and probes. The amplicon was located within NS5B. […] (SEQ. ID NO. 2); the probe sequence was FAM-labeled […] (SEQ. ID NO. 3).
The real-time RT-PCR reactions were run on ABI PRISM 7900HT or Viia7 Sequence Detection System using the following program: 48° C. for 30 minutes, 95° C. for 10 minutes, 40 cycles of 95° C. for 15 sec, 60° C. for 1 minutes.
Data for replicons 1A, 1AY93H and 2B were obtained using Replicon Assay A and data for replicons 1AQ30D and 1B were obtained using Replicon Assay B.

[1] = read-out: 1A Y93H IC50; HCV replicon 1A Y93H; Replicon Assay A
[2] = read-out: 2B IC50, HCV replicon 2B
[3] = Hepatitis C virus, HCV replicon 1B
[4] = read-out: 1A Y93H IC50; replicon 1AY93H; Replicon Assay A

SMILES	pIC50 (HCV replicon 1AY93H; [1])	pIC50 (HCV replicon 1A; HCV replicon 1A)	pIC50 (HCV replicon 2B; [2])	pIC50 (HCV replicon 1B; HCV replicon 1B)	pIC50 (HCV replicon 1B; [3])	pIC50 (HCV replicon 1AY93H; [4])	pIC50 (HCV replicon 1A; replicon 1A)	pIC50 (HCV replicon 2B; read-out: 2B IC50, replicon 2B)	further results
COC(=O)NC(C(=O)N1CCC[C@H]1c1ncc(-c2cc(F)c3c(c2)OC(c2ccc(C4CC4)s2)n2c-3cc3cc(-c4cnc([C@@H]5C[C@H]6C[C@H]6N5C(=O)[C@@H](NC(=O)OC)C(C)C)[nH]4)ccc32)[nH]1)C(C)(C)F (stereo partly shown) [Compound 97]									IC50 (HCV replicon 1AY93H; Hepatitis C virus, read-out: 1A Y93H IC50 (nM), replicon 1AY93H; Replicon Assay A): 0.008 nM; pIC50 (HCV replicon 1A; Hepatitis C virus, replicon 1A): 11.96; IC50 (HCV replicon 2B; Hepatitis C virus, read-out: 2B IC50 (nM), replicon 2B): 0.036 nM; pIC50 (HCV replicon 1B; Hepatitis C virus, replicon 1B): 11.62
COC(=O)N[C@H](C(=O)N1C2CC2C[C@H]1c1ncc(-c2cc(F)c3c(c2)OC(c2ccc(C4CC4)s2)n2c-3cc3cc(-c4cnc([C@@H]5CCCN5C(=O)[C@@H](NC(=O)OC)C5C[C@@H](C)O[C@@H](C)C5)[nH]4)ccc32)[nH]1)C(C)C (single isomer, unassigned) [Compound 558]	9.44	10.27	8.91	10.45					
COC(=O)NC(C(=O)N1CCC[C@H]1c1ncc(-c2ccc3c(c2)cc2n3C(c3ccc(CC4CC4)s3)Oc3cc(-c4cnc([C@@H]5CCCN5C(=O)[C@@H](NC(=O)OC)C(C)C)[nH]4)cc(F)c3-2)[nH]1)C1CCOC(C)(C)C1 (single isomer, unassigned) [Compound 407]	9.59	11.77	9.58		11.72				
COC(=O)NC(C(=O)N1CCC[C@H]1c1ncc(-c2cc(F)c3c(c2)OC(c2ccc(C4CC4)s2)n2c-3cc3cc(-c4cnc([C@@H]5CCCN5C(=O)[C@@H](NC(=O)OC)C5CCOCC5)[nH]4)ccc32)[nH]1)C(C)(C)F (stereo partly shown) [Compound 170]						10.25	12.00	10.30	pIC50 (HCV replicon 1B; replicon 1B): 11.48
COC(=O)N[C@H](C(=O)N1CCC[C@H]1c1ncc(-c2cc(F)c3c(c2)OC(c2ccc(C4(C)CC4)s2)n2c-3cc3cc(-c4cnc([C@@H]5CCCN5C(=O)[C@@H](NC(=O)OC)C(C)C)[nH]4)ccc32)[nH]1)C(C)C (single isomer, unassigned) [Compound 835]		11.46		11.85					pIC50 (HCV replicon 1AY93H; HCV replicon 1A Y93H; Replicon Assay A; read-out: 1A Y93H IC50): 9.03; pIC50 (HCV replicon 2B; HCV replicon 2B, read-out: 2B IC50): 8.88
COC(=O)N[C@H](C(=O)N1CCC[C@H]1c1ncc(-c2ccc3c(c2)OC(c2ccc(C4CC4)s2)n2c-3c(F)c3cc(-c4cnc([C@@H]5CCCN5C(=O)[C@@H](NC(=O)OC)C(C)C)[nH]4)ccc32)[nH]1)C(C)C (single isomer, unassigned) [Compound 606]	9.79	11.59	9.54	11.49					
COC(=O)NC(C(=O)N1CCC[C@H]1c1ncc(-c2ccc3c(c2)cc2n3C(c3ccc(C4CC4)s3)Oc3cc(-c4cnc([C@@H]5C[C@@H](F)CN5C(=O)[C@@H](NC(=O)OC)C(C)C)[nH]4)cc(F)c3-2)[nH]1)C(C)(C)F (single isomer, unassigned) [Compound 114]						11.70	11.89	9.70	pIC50 (HCV replicon 1B; Hepatitis C virus, replicon 1B): 11.62
COC(=O)N[C@H](C(=O)N1CCC[C@H]1c1ncc(-c2cc(F)c3c(c2)OC(c2ccc(F)s2)n2c-3cc3cc(-c4cnc([C@@H]5CCCN5C(=O)[C@@H](NC(=O)OC)C(C)C)[nH]4)ccc32)[nH]1)C(C)C (single isomer, unassigned) [Compound 14]						10.23	11.70	9.64	pIC50 (HCV replicon 1B; replicon 1B): 11.62
COC(=O)NC(C(=O)N1CCC[C@H]1c1ncc(-c2ccc3c(c2)cc2n3C(c3cc4c(s3)CCC4)Oc3cc(-c4cnc([C@@H]5CCCN5C(=O)[C@@H](NC(=O)OC)C(C)C)[nH]4)cc(C)c3-2)[nH]1)C1CCOC(C)(C)C1 (single isomer, unassigned) [Compound 852]	8.88		10.24		11.60				pIC50 (HCV replicon 1A; Hepatitis C virus, HCV replicon 1A): < 11.52
COC(=O)N[C@H](C(=O)N1C[C@H](F)C[C@H]1c1cnc(-c2ccc3c(c2)cc2n3C(c3cc4ccccc4s3)Oc3cc(-c4cnc([C@@H]5C[C@@H](F)CN5C(=O)[C@@H](NC(=O)OC)C(C)C)[nH]4)ccc3-2)[nH]1)C(C)C (single isomer, unassigned) [Compound 805]	11.00	11.00			11.30				pIC50 (HCV replicon 2B; Hepatitis C virus, read-out: 2B IC50, HCV replicon 2B): 7.67
